Test results taken from patent US7557133B2, “Caspase inhibitors containing isoxazoline ring” (LG Life Sciences Ltd., priority 2003, dated 2009).

What was measured:
[1] = tested on: Jurkat cell (ATCC TIB-152); experiment: Jurkat cell apoptosis by Fas antibody, WST-1 method; format: cell-based; settings: apoptosis using Fas antibody, WST-1; for IC50: Homo sapiens, Jurkat
Description: The […] inhibitory activity of the inhibitors was determined by subjecting Jurkat cell (ATCC TIB-152) to apoptosis using Fas antibody (Upstate Biotech 05-201) and by detecting the color change according to the WST-1 method known in Francoeur A. M. and Assalian A. (1996) Biochemica 3, 19-25 to observe the amount of alive Jurkat cells when the cells were treated by the inhibitor. Spectra MAX 340 Spectrometer of Molecular Device Co. was used at the absorbance wavelength of 440 nm.

[2] = molecular target: T1, caspase-8 (Homo sapiens, UniProt Q14790); experiment: Caspase-8 inhibitory effect (fluorescent substrate AcDEVD-AFC); format: biochemical; settings: 25° C., 50 μM AcDEVD-AFC, 2.1 nM caspase-8; for kinact/KI: pH 7.5, read-out: Caspase-8 Kobs/[I] (converted)
T1 construct: p10 and p20 subunits (Thornberry, N. A. et al, Nature, 1992, 356, 768) were expressed in E. coli; made in house; host or cells: E. coli
Description: Caspase-1 and caspase-8 known as cysteine proteases in the form of α2β2 were expressed, purified, and activated by modifying a method known in Thornberry, N. A. et al, Nature, 1992, 356, 768. Thornberry, N. A. Methods in Enzymology, 1994, 244, 615. Walker, N. P. C. et al. Cell, 1994, 78, 343, and caspase-9 was also purified by a similar method, and the inhibitory activity against them was tested. Briefly describing, p10 and p20 subunits (Thornberry, N. A. et al, Nature, 1992, 356, 768) were expressed in E. coli and purified by nickel column and anionic exchange chromatography to give caspase-1, caspase-8 and caspase-9. The fluorescent substrate AcYVAD-AFC for thus obtained caspase-1, AcDEVD-AFC for caspase-8, and AcLEHD-AFC for caspase-9 were used for determining specific activity of the synthesized inhibitors. The enzyme reaction was carried out at 25° C. with various concentrations of the inhibitors in a buffer solution containing 50 mM HEPES(pH 7.50), 10% (w/v) sucrose, 0.1% (w/v) CHAPS, 100 mM NaCl, 1 mM EDTA, and 10 mM DTT in the presence of 50 μM AcYVAD-AFC for 10 nM caspase-1, 50 μM AcDEVD-AFC for 2.1 nM caspase-8, and 150 μM AcLEHD-AFC for 200 nM caspase-9. The inhibitory constants Ki and Kobs of the inhibitors were determined by measuring the reaction velocity with the time lapse using a fluorescent spectrometer and by obtaining the initial rate constant. Ki was calculated from the Lineweaver Burk Plot, and Kobs from the following Equation 1. Kobs=−ln(1−At/Aoo)/t Equation 1
At means cleavate rate (%) at time t, and
Aoo means the maximum cleavage rate (%).
Spectra MAX GeminiXS Fluorescent Spectrometer of Molecular Device Co. was used at the excitation wavelength of 405 nm and the emission wavelength of […].

T1 sequence (Q14790 217-374 limits assumed, species assumed): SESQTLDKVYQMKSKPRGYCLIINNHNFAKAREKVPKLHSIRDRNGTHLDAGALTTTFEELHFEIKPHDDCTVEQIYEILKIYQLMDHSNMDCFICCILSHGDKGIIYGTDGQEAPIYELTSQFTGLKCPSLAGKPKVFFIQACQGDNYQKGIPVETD
T1 sequence (Q14790 385-479 limits assumed, species assumed): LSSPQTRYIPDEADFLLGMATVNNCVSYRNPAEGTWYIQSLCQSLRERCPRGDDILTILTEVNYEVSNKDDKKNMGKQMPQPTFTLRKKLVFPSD

IC50 [1] [nM]	kinact/KI [2] [M⁻¹ s⁻¹]	Jurkat cell IC50 [1]	Caspase-8 Kobs/[I] [2]	Structure (SMILES)
350	5170			CCC1(C(=O)NC(CC(=O)O)C(=O)CF)CC(c2cc(C3CCCC3)ccn2)=NO1 (stereo not shown) [Iaa13, 3-({[3-(4-Cyclopentyl-2-pyridinyl)-5-ethyl-4,5-dihydro-5-isoxazolyl]carbonyl}amino)-5-fluoro-4-oxopentanoic Acid]
26500	667			CCC1(C(=O)NC(CC(=O)O)C(=O)CF)CC(c2cccc3cccnc23)=NO1 (stereo not shown) [Ixx, 3-({[5-ethyl-3-(8-quinolinyl)-4,5-dihydro-5-isoxazolyl]carbonyl}amino)-5-fluoro-4-oxopentanoic acid]
	267	No Activity		CC(C)[C@@]1(C(=O)N[C@@H](CC(=O)O)C(=O)COc2cc(C(F)(F)F)nn2-c2ccccc2)CC(c2nccc3ccccc23)=NO1 [Iaa19, (3S)-3-({[(5R)-5-isopropyl-3-(1-isoquinolinyl)-4,5-dihydro-5-isoxazolyl]carbonyl}amino)-4-oxo-5-{[1-phenyl-3-(trifluoromethyl)-1H-pyrazol-5-yl]oxy}pentanoic acid]
1240	3830			CC(C)[C@@]1(C(=O)NC(CC(=O)O)C(=O)CF)CC(c2cc(C(C)(C)C)ccn2)=NO1 (stereo partly drawn) [Iaa9, 3-[({(5R)-3-[4-(tert-butyl)-2-pyridinyl]-5-isopropyl-4,5-dihydro-5-isoxazolyl}carbonyl)amino]-5-fluoro-4-oxopentanoic acid]
1300	13700			CC(C)C1(C(=O)NC(CC(=O)O)C(=O)CF)CC(c2cc3cc(Cl)ccc3n2C)=NO1 (stereo not shown) [Iaa27, 3-({[3-(5-chloro-1-methyl-1H-indol-2-yl)-5-isopropyl-4,5-dihydro-5-isoxazolyl]carbonyl}amino)-5-fluoro-4-oxopentanoic acid]
150	25000			CC[C@@]1(C(=O)NC(CC(=O)O)C(=O)CF)CC(c2ccc3ccccc3n2)=NO1 (stereo partly drawn) [Ivv, 3-({[(5S)-5-ethyl-3-(2-quinolinyl)-4,5-dihydro-5-isoxazolyl]carbonyl}amino)-5-fluoro-4-oxopentanoic acid]
720	7170			CCC1(C(=O)NC(CC(=O)O)C(=O)CF)CC(c2cc(C3CCCCC3)ccn2)=NO1 (stereo not shown) [Iaa15, 3-({[3-(4-Cyclohexyl-2-pyridinyl)-5-ethyl-4,5-dihydro-5-isoxazolyl]carbonyl}amino)-5-fluoro-4-oxopentanoic Acid]
1250	7000			CC(C)[C@@]1(C(=O)NC(CC(=O)O)C(=O)CF)CC(c2ccc3ccccc3n2)=NO1 (stereo partly drawn) [Izz, 5-Fluoro-3-({[(5R)-5-isopropyl-3-(2-quinolinyl)-4,5-dihydro-5-isoxazolyl]carbonyl}amino)-4-oxopentanoic Acid]
	483	No Activity		CC(C)[C@@]1(C(=O)N[C@@H](CC(=O)O)C(=O)COc2ccccn2)CC(c2nccc3ccccc23)=NO1 [Iaa23, (3S)-3-({[(5R)-5-isopropyl-3-(1-isoquinolinyl)-4,5-dihydro-5-isoxazolyl]carbonyl}amino)-4-oxo-5-(2-pyridinyloxy)pentanoic Acid]
560	5330			CCC1(C(=O)NC(CC(=O)O)C(=O)CF)CC(c2cccc(C(C)(C)C)c2)=NO1 (stereo not shown) [Iaa2, 3-[({3-[3-(tert-Butyl)phenyl]-5-ethyl-4,5-dihydro-5-isoxazolyl}carbonyl)amino]-5-fluoro-4-oxopentanoic acid]
	2830	No Activity		CC(C)[C@@]1(C(=O)N[C@@H](CC(=O)O)C(=O)COc2cccc[n+]2C)CC(c2nccc3ccccc23)=NO1.O=S(=O)([O-])C(F)(F)F [Iaa25, 2-{[(3S)-4-carboxy-3-({[(5R)-5-isopropyl-3-(1-isoquinolinyl)-4,5-dihydro-5-isoxazolyl]carbonyl}amino)-2-oxobutyl]oxy}-1-methylpyridinium trifluoromethanesulfonate]
1020	2500			CCC1(C(=O)NC(CC(=O)O)C(=O)CF)CC(c2cc(CC(C)C)ccn2)=NO1 (stereo not shown) [Iaa10, 3-({[5-Ethyl-3-(4-isobutyl-2-pyridinyl)-4,5-dihydro-5-isoxazolyl]carbonyl}amino)-5-fluoro-4-oxopentanoic acid]
1900	18300			CC[C@]1(C(=O)NC(CC(=O)O)C(=O)CF)CC(c2cc3ccccc3cn2)=NO1 (stereo partly drawn) [Iww, 3-({[(5R)-5-ethyl-3-(3-isoquinolinyl)-4,5-dihydro-5-isoxazolyl]carbonyl}amino)-5-fluoro-4-oxopentanoic Acid]
1140	3000			CC(C)C1(C(=O)NC(CC(=O)O)C(=O)CF)CC(c2cc(-c3ccccc3)ccn2)=NO1 (stereo not shown) [Iaa17, 5-Fluoro-3-({[5-isopropyl-3-(4-phenyl-2-pyridinyl)-4,5-dihydro-5-isoxazolyl]carbonyl}amino)-4-oxopentanoic Acid]
		No Activity	No Activity	CC(C)C(=O)OCC(=O)[C@H](CC(=O)O)NC(=O)[C@]1(C(C)C)CC(c2nccc3ccccc23)=NO1 [Iaa21, (3S)-5-(isobutyryloxy)-3-({[(5R)-5-isopropyl-3-(1-isoquinolinyl)-4,5-dihydro-5-isoxazolyl]carbonyl}amino)-4-oxopentanoic acid]
31000	1070			CCC1(C(=O)NC(CC(=O)O)C(=O)CF)CC(c2cc(C(C)=O)ccn2)=NO1 (stereo not shown) [Iaa11, 3-({[3-(4-Acetyl-2-pyridinyl)-5-ethyl-4,5-dihydro-5-isoxazolyl]carbonyl}amino)-5-fluoro-4-oxopentanoic acid]
2000	2670			CCC1(C(=O)NC(CC(=O)O)C(=O)CF)CC(c2c(C)c3ccccc3n2C)=NO1 (stereo not shown) [Imm, 3-({[3-(1,3-Dimethyl-1H-indol-2-yl)-5-ethyl-4,5-dihydro-5-isoxazolyl]carbonyl}amino)-5-fluoro-4-oxopentanoic acid]
160	7170			CCC[C@@]1(C(=O)NC(CC(=O)O)C(=O)CF)CC(c2nccc3ccccc23)=NO1 (stereo partly drawn) [Itt, 5-Fluoro-3-({[(5S)-3-(1-isoquinolinyl)-5-propyl-4,5-dihydro-5-isoxazolyl]carbonyl}amino)-4-oxopentanoic acid]
1500	8670			CC(C)[C@@]1(C(=O)N[C@@H](CC(=O)O)C(=O)COP(=O)(c2ccccc2)c2ccccc2)CC(c2nccc3ccccc23)=NO1 [Iaa18, (3S)-5-[(diphenylphosphoryl)oxy]-3-({[(5R)-5-isopropyl-3-(1-isoquinolinyl)-4,5-dihydro-5-isoxazolyl]carbonyl}amino)-4-oxopentanoic acid]
	517	No Activity		CCC1(C(=O)N[C@@H](CC(=O)O)C(=O)COc2cccc[n+]2C)CC(c2ccccc2C(C)C)=NO1.O=S(=O)([O-])C(F)(F)F (stereo partly drawn) [Iaa26, 2-{[(3S)-4-carboxy-3-({[5-ethyl-3-(2-isopropylphenyl)-4,5-dihydro-5-isoxazolyl]carbonyl}amino)-2-oxobutyl]oxy}-1-methylpyridinium trifluoromethanesulfonate]
730	10300			CCC1(C(=O)NC(CC(=O)O)C(=O)CF)CC(c2nccc3c2CCCC3)=NO1 (stereo not shown) [Iaa16, 3-({[5-Ethyl-3-(5,6,7,8-tetrahydro-1-isoquinolinyl)-4,5-dihydro-5-isoxazolyl]carbonyl}amino)-5-fluoro-4-oxopentanoic acid]
790	6830			CC(C)[C@@]1(C(=O)NC(CC(=O)O)C(=O)CF)CC(c2cc(C3CCCC3)ccn2)=NO1 (stereo partly drawn) [Iaa14, 3-({[(5R)-3-(4-cyclopentyl-2-pyridinyl)-5-isopropyl-4,5-dihydro-5-isoxazolyl]carbonyl}amino)-5-fluoro-4-oxopentanoic Acid]
6500	4330			CCC1(C(=O)N[C@@H](CC(=O)O)C(=O)COc2c(F)c(F)cc(F)c2F)CC(Cc2cccc3ccccc23)=NO1 (stereo partly drawn) [Inn, (3S)-3-({[5-ethyl-3-(1-naphthylmethyl)-4,5-dihydro-5-isoxazolyl]carbonyl}amino)-4-oxo-5-(2,3,5,6-tetrafluorophenoxy)pentanoic acid]
